{"source": "ChEMBL document CHEMBL5226311", "about": "“Recent Progress on Tubulin Inhibitors with Dual Targeting Capabilities for Cancer Therapy” (J Med Chem, 2021)", "key": {"[1]": {"target": "Vascular endothelial growth factor receptor 2 (Homo sapiens, UniProt P35968)", "sequence (P35968 whole entry)": "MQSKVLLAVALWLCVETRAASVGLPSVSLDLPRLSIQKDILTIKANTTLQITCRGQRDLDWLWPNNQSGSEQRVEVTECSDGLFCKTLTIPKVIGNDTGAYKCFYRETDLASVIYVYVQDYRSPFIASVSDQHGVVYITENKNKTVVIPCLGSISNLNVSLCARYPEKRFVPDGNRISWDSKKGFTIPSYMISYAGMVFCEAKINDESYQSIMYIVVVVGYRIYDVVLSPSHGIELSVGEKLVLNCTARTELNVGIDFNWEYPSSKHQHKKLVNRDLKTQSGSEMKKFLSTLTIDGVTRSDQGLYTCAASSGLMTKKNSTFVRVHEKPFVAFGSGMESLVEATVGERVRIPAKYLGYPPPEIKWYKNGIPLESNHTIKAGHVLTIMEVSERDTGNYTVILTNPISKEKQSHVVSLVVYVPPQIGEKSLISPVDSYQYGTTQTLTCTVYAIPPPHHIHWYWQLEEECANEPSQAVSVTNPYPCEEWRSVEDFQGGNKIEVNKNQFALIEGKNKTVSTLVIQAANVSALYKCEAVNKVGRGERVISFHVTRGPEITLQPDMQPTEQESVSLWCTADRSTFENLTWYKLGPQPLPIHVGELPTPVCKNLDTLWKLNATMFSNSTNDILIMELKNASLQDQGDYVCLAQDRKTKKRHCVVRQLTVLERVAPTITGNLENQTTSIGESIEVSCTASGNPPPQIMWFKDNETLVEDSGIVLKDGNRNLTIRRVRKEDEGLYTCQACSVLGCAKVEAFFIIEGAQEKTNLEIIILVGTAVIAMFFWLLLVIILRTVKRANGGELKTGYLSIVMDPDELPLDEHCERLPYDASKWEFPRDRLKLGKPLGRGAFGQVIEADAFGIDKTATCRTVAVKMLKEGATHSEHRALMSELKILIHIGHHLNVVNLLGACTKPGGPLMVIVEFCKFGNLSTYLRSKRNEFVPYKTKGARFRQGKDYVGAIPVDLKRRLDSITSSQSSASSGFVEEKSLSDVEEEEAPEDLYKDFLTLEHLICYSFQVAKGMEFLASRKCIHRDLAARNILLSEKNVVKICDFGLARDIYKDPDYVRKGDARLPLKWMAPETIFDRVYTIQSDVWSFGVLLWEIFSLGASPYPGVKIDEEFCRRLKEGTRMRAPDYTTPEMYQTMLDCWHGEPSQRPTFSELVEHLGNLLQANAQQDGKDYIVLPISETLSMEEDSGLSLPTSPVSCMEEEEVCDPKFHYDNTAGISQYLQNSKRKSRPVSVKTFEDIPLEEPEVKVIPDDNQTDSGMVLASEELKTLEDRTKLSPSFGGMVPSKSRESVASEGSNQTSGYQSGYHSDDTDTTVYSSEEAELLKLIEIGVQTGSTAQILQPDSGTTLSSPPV", "assay": "Inhibition of VEGFR2 (unknown origin)"}, "[2]": {"target": "Epidermal growth factor receptor (Homo sapiens, UniProt P00533)", "sequence (P00533 whole entry)": "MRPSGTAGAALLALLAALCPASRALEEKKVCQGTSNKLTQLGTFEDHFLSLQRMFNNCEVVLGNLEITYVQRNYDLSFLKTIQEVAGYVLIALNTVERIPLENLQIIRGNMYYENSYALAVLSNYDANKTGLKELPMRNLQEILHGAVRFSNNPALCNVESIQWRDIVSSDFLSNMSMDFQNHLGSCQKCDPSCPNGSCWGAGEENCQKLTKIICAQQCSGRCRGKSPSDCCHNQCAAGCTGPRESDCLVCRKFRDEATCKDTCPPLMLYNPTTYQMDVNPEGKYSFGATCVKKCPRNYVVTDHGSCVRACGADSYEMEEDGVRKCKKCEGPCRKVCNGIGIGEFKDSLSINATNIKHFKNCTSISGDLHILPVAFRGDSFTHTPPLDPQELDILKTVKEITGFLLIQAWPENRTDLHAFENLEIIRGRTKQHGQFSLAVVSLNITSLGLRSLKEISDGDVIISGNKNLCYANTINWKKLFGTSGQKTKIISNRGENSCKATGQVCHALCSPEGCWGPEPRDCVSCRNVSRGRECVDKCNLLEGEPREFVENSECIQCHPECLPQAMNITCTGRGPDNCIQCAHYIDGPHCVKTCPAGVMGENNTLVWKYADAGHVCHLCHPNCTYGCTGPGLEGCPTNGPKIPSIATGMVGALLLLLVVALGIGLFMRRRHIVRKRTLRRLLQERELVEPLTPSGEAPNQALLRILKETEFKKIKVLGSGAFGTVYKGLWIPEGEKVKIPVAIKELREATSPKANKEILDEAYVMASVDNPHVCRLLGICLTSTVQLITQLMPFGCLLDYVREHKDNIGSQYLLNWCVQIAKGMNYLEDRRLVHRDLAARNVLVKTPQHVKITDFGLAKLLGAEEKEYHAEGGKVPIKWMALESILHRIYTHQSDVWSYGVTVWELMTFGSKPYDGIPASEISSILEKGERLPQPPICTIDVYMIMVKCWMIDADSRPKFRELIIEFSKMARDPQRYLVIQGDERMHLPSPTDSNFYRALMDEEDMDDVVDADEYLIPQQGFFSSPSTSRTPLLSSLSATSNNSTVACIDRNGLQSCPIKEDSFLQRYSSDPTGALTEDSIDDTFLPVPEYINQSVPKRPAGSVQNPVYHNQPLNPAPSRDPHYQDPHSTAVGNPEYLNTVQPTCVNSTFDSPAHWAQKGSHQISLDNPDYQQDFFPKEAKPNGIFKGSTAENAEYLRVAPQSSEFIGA", "assay": "Inhibition of EGFR (unknown origin)"}, "[3]": {"test_system": "MCF7", "assay": "Antiproliferative activity against human MCF7 cells assessed as cell growth inhibition", "assay_type": "functional, cell-based"}, "[4]": {"test_system": "A549", "assay": "Antiproliferative activity against human A549 cells assessed as cell growth inhibition", "assay_type": "functional, cell-based"}, "[5]": {"test_system": "EA.hy 926", "assay": "Antiproliferative activity against human EA.hy 926 cells assessed as cell growth inhibition", "assay_type": "functional, cell-based"}, "[6]": {"test_system": "DLD-1", "assay": "Antiproliferative activity against MTAs-resistant human DLD-1 cells overexpressing P-gp assessed as cell growth inhibition", "assay_type": "functional, cell-based"}, "[7]": {"test_system": "CCRF-CEM", "assay": "Antiproliferative activity against human CCRF-CEM cells assessed as cell growth inhibition", "assay_type": "functional"}, "[8]": {"test_system": "SN12C", "assay": "Antiproliferative activity against human SN12C cells assessed as cell growth inhibition", "assay_type": "functional"}, "[9]": {"test_system": "SW-620", "assay": "Antiproliferative activity against human SW-620 cells assessed as cell growth inhibition", "assay_type": "functional"}, "[10]": {"test_system": "SF-539", "assay": "Antiproliferative activity against human SF-539 cells assessed as cell growth inhibition", "assay_type": "functional"}, "[11]": {"test_system": "LOX IMVI", "assay": "Antiproliferative activity against human LOX IMVI cells assessed as cell growth inhibition", "assay_type": "functional"}, "[12]": {"test_system": "A498", "assay": "Antiproliferative activity against human A498 cells assessed as cell growth inhibition", "assay_type": "functional"}, "[13]": {"test_system": "KM12", "assay": "Antiproliferative activity against human KM12 cells assessed as cell growth inhibition", "assay_type": "functional"}, "[14]": {"test_system": "K562", "assay": "Antiproliferative activity against human K562 cells assessed as cell growth inhibition", "assay_type": "functional"}, "[15]": {"test_system": "M14", "assay": "Antiproliferative activity against human M14 cells assessed as cell growth inhibition", "assay_type": "functional"}, "[16]": {"test_system": "HCT-15", "assay": "Antiproliferative activity against human HCT-15 cells assessed as cell growth inhibition", "assay_type": "functional"}, "[17]": {"test_system": "OVCAR-3", "assay": "Antiproliferative activity against human OVCAR-3 cells assessed as cell growth inhibition", "assay_type": "functional"}, "[18]": {"test_system": "OVCAR-8", "assay": "Antiproliferative activity against human OVCAR-8 cells assessed as cell growth inhibition", "assay_type": "functional"}, "[19]": {"test_system": "MDA-MB-435", "assay": "Antiproliferative activity against human MDA-MB-435 cells assessed as cell growth inhibition", "assay_type": "functional"}, "[20]": {"test_system": "SF-295", "assay": "Antiproliferative activity against human SF-295 cells assessed as cell growth inhibition", "assay_type": "functional"}, "[21]": {"test_system": "HL-60(TB)", "assay": "Antiproliferative activity against human HL-60(TB) cells assessed as cell growth inhibition", "assay_type": "functional"}, "[22]": {"test_system": "Hs-578T", "assay": "Antiproliferative activity against human Hs-578T cells assessed as cell growth inhibition", "assay_type": "functional"}, "[23]": {"test_system": "SNB-75", "assay": "Antiproliferative activity against human SNB-75 cells assessed as cell growth inhibition", "assay_type": "functional"}, "[24]": {"test_system": "PC-3", "assay": "Antiproliferative activity against human PC-3 cells assessed as cell growth inhibition", "assay_type": "functional"}, "[25]": {"test_system": "NCI-H322M", "assay": "Antiproliferative activity against human NCI-H322M cells assessed as cell growth inhibition", "assay_type": "functional"}, "[26]": {"test_system": "NCI/ADR-RES", "assay": "Antiproliferative activity against human NCI/ADR-RES cells assessed as cell growth inhibition", "assay_type": "functional"}, "[27]": {"test_system": "NCI-H522", "assay": "Antiproliferative activity against human NCI-H522 cells assessed as cell growth inhibition", "assay_type": "functional"}, "[28]": {"target": "Tubulin", "assay": "Inhibition of tubulin polymerization (unknown origin)", "assay_type": "protein-complex assay, Homo sapiens"}, "[29]": {"test_system": "RXF 393", "assay": "Antiproliferative activity against human RXF 393 cells assessed as cell growth inhibition", "assay_type": "functional"}, "[30]": {"test_system": "DU-145", "assay": "Antiproliferative activity against human DU-145 cells assessed as cell growth inhibition", "assay_type": "functional"}, "[31]": {"test_system": "BT-549", "assay": "Antiproliferative activity against human BT-549 cells assessed as cell growth inhibition", "assay_type": "functional"}}, "data": [{"smiles": "COc1ccc(-c2cc(=O)oc3c(O)c(O)ccc23)cc1O", "values": [{"measurement": "IC50", "setting": "[1]", "value": 5500, "unit": "nM"}, {"measurement": "IC50", "setting": "[2]", "value": 4900, "unit": "nM"}]}, {"smiles": "COC(=O)NCCc1c(C(=O)c2cc(C(F)(F)F)cc(C(F)(F)F)c2)[nH]c2ccccc12", "values": [{"measurement": "IC50", "setting": "[3]", "value": 1300, "unit": "nM"}, {"measurement": "IC50", "setting": "[4]", "value": 2010, "unit": "nM"}]}, {"smiles": "COc1ccc(/C=C\\c2cc(OC)c(OC)c(OC)c2)cc1O", "note": "[COMBRETASTATIN A4]", "values": [{"measurement": "IC50", "setting": "[5]", "value": 11, "unit": "nM"}]}, {"smiles": "CCCCC(C#CC(=O)OC)O/C=C/C(=O)OC", "note": "(stereo not given)", "values": [{"measurement": "IC50", "setting": "[6]", "value": 450, "unit": "nM"}]}, {"smiles": "COc1ccc(-c2ocnc2-c2cc(Br)c(OC)c(OC)c2)cc1OCCCC(=O)NO", "values": [{"measurement": "IC50", "setting": "[5]", "value": 18, "unit": "nM"}]}, {"smiles": "COc1ccc(C(=O)c2cc(C)c(OC)c(C)c2)cc1OC(=O)CCl", "values": [{"measurement": "GI50", "setting": "[7]", "value": "< 10", "unit": "nM"}, {"measurement": "GI50", "setting": "[8]", "value": "< 10", "unit": "nM"}, {"measurement": "GI50", "setting": "[9]", "value": "< 10", "unit": "nM"}, {"measurement": "GI50", "setting": "[10]", "value": "< 10", "unit": "nM"}, {"measurement": "GI50", "setting": "[11]", "value": "< 10", "unit": "nM"}, {"measurement": "GI50", "setting": "[12]", "value": "< 10", "unit": "nM"}, {"measurement": "GI50", "setting": "[13]", "value": "< 10", "unit": "nM"}, {"measurement": "GI50", "setting": "[14]", "value": "< 10", "unit": "nM"}, {"measurement": "GI50", "setting": "[15]", "value": "< 10", "unit": "nM"}, {"measurement": "GI50", "setting": "[16]", "value": "< 10", "unit": "nM"}, {"measurement": "GI50", "setting": "[17]", "value": "< 10", "unit": "nM"}, {"measurement": "GI50", "setting": "[18]", "value": "< 10", "unit": "nM"}, {"measurement": "GI50", "setting": "[19]", "value": "< 10", "unit": "nM"}, {"measurement": "GI50", "setting": "[20]", "value": "< 10", "unit": "nM"}, {"measurement": "GI50", "setting": "[21]", "value": "< 10", "unit": "nM"}, {"measurement": "GI50", "setting": "[3]", "value": "< 10", "unit": "nM"}, {"measurement": "GI50", "setting": "[22]", "value": "< 10", "unit": "nM"}, {"measurement": "GI50", "setting": "[23]", "value": "< 10", "unit": "nM"}, {"measurement": "GI50", "setting": "[24]", "value": "< 10", "unit": "nM"}, {"measurement": "GI50", "setting": "[25]", "value": "< 10", "unit": "nM"}, {"measurement": "GI50", "setting": "[26]", "value": "< 10", "unit": "nM"}, {"measurement": "GI50", "setting": "[4]", "value": "< 10", "unit": "nM"}, {"measurement": "GI50", "setting": "[27]", "value": "< 10", "unit": "nM"}, {"measurement": "IC50", "setting": "[28]", "value": 1300, "unit": "nM"}, {"measurement": "GI50", "setting": "[29]", "value": "< 10", "unit": "nM"}, {"measurement": "GI50", "setting": "[30]", "value": "< 10", "unit": "nM"}, {"measurement": "GI50", "setting": "[31]", "value": "< 10", "unit": "nM"}]}, {"smiles": "COc1ccn2c(C(C)=O)cc(C(=O)c3ccc4c(c3)Sc3ccccc3N4)c2c1", "values": [{"measurement": "GI50", "setting": "[19]", "value": 19, "unit": "nM"}]}]}
